In patent EP1157985A1 (G.D. SEARLE & CO., priority 1996, dated 1997):
Where a name gives a salt, the structure may show the parent alone. Read-outs that look alike come from different tables or passages of the source.

How the values were obtained:
[1] = target: T1, Human vitronectin receptor (αvβ3) (Homo sapiens, UniProt P05106+P06756); experiment: Vitronectin adhesion assay (solid phase receptor assay, competition with biotinylated vitronectin); type: binding
T1 construct: Human vitronectin receptor (αvβ3) was purified from human placenta; from tissue; host or cells: human placenta
Method: VITRONECTIN ADHESION ASSAY
Human vitronectin receptor (αvβ3) was purified from human placenta as previously described [Pytela et al., Methods in Enzymology, 144:475-489 (1987)]. Human vitronectin was purified from fresh frozen plasma as previously described [Yatohgo et al., Cell Structure and Function, 13:281-292 (1988)]. Biotinylated human vitronectin was prepared by coupling NHS-biotin from Pierce Chemical Company (Rockford, IL) to purified vitronectin as previously described [Charo et al., J. Biol. Chem., 266(3):1415-1421 (1991)]. Assay buffer, OPD substrate tablets, and RIA grade BSA were obtained from Sigma (St. Louis, MO). Anti-biotin antibody was obtained from Calbiochem (La Jolla, CA). Linbro microtiter plates were obtained from Flow Labs (McLean, VA). ADP reagent was obtained from Sigma (St. Louis, MO).
This assay was essentially the same as previously reported [Niiya et al., Blood, 70:475-483 (1987)]. The purified human vitronectin receptor (αvβ3) was diluted from stock solutions to 1.0 µg/mL in Tris-buffered saline containing 1.0 mM Ca^++, Mg^++, and Mn^++, pH 7.4 (TBS^+++). The diluted receptor was immediately transferred to Linbro microtiter plates at 100 µL/well (100 ng receptor/well). The plates were sealed and incubated overnight at 4°C to allow the receptor to bind to the wells. All remaining steps were at room temperature. The assay plates were emptied and 200 µL of 1% RIA grade BSA in TBS^+++ (TBS^+++/BSA) were added to block exposed plastic surfaces. Following a 2 hour incubation, the assay plates were washed with TBS^+++ using a 96 well plate washer. Logarithmic serial dilution of the test compound and controls were made starting at a stock concentration of 2 mM and using 2 nM biotinylated vitronectin in TBS^+++/BSA as the diluent. This premixing of labeled ligand with test (or control) ligand, and subsequent transfer of 50 µL aliquots to the assay plate was carried out with a CETUS Propette robot; the final concentration of the labeled ligand was 1 nM and the highest concentration of test compound was 1.0 x 10^-4 M. The competition occurred for two hours after which all wells were washed with a plate washer as before. Affinity purified horseradish peroxidase labeled goat anti-biotin antibody was diluted 1:3000 in TBS^+++/BSA and 125 µL were added to each well. After 30 minutes, the plates were washed and incubated with OPD/H2O2 substrate in 100 mM/L Citrate buffer, pH 5.0. The plate was read with a microtiter plate reader at a wavelength of 450 nm and when the maximum-binding control wells reached an absorbance of about 1.0, the final A450 were recorded for analysis. The data were analyzed using a macro written for use with the EXCEL™ spreadsheet program. The mean, standard deviation, and %CV were determined for duplicate concentrations. The mean A450 values were normalized to the mean of four maximum-binding controls (no competitor added)(B-MAX). The normalized values were subjected to a four parameter curve fit algorithm [Rodbard et al., Int.

[2] = target: T2, Human fibrinogen receptor (αIIbβ3) (Homo sapiens, UniProt P05106+P08514); experiment: Purified IIb/IIIa receptor assay (solid phase receptor assay, competition with biotinylated vitronectin); type: binding; settings: purified receptor from outdated platelets; 1 nM biotinylated vitronectin; highest concentration tested 1.0 x 10^-4 M
T2 construct: Human fibrinogen receptor (αIIbβ3) was purified from outdated platelets; from tissue; host or cells: outdated (human) platelets
Excerpt: PURIFIED IIb/IIIa RECEPTOR ASSAY
Human fibrinogen receptor (αIIbβ3) was purified from outdated platelets. (Pytela, R., Pierschbacher, M.D., Argraves, S., Suzuki, S., and Rouslahti, E. "Arginine-Glycine-Aspartic acid adhesion receptors", Methods in Enzymology 144(1987):475-489.) Human vitronectin was purified from fresh frozen plasma as described in Yatohgo, T., Izumi, M., Kashiwagi, H., and Hayashi, M., "Novel purification of vitronectin from human plasma by heparin affinity chromatography," Cell Structure and Function 13(1988):281-292. Biotinylated human vitronectin was prepared by coupling NHS-biotin from Pierce Chemical Company (Rockford, IL) to purified vitronectin as previously described. (Charo, I.F., Nannizzi, L., Phillips, D.R., Hsu, M.A., Scarborough, R.M., "Inhibition of fibrinogen binding to GP IIb/IIIa by a GP IIIa peptide", J. Biol. Chem. 266(3)(1991): 1415-1421.) Assay buffer, OPD substrate tablets, and RIA grade BSA were obtained from Sigma (St. Louis, MO). Anti-biotin antibody was obtained from Calbiochem (La Jolla, CA). Linbro microtiter plates were obtained from Flow Labs (McLean, VA). ADP reagent was obtained from Sigma (St. Louis, MO).
This assay is essentially the same reported in Niiya, K., Hodson, E., Bader, R., Byers-Ward, V. Koziol, J.A., Plow, E.F. and Ruggeri, Z.M., "Increased surface expression of the membrane glycoprotein IIb/IIIa complex induced by platelet activation: Relationships to the binding of fibrinogen and platelet aggregation", Blood 70(1987):475-483. The purified human fibrinogen receptor (αIIbβ3) was diluted from stock solutions to 1.0 µg/mL in Tris-buffered saline containing 1.0 mM Ca^++, Mg^++, and Mn^++, pH 7.4 (TBS^+++). The diluted receptor was immediately transferred to Linbro microtiter plates at 100 µL/well (100 ng receptor/well). The plates were sealed and incubated overnight at 4°C to allow the receptor to bind to the wells. All remaining steps were at room temperature. The assay plates were emptied and 200 µL of 1% RIA grade BSA in TBS^+++ (TBS^+++/BSA) were added to block exposed plastic surfaces. Following a 2 hour incubation, the assay plates were washed with TBS^+++ using a 96 well plate washer. Logarithmic serial dilution of the test compound and controls were made starting at a stock concentration of 2 mM and using 2 nM biotinylated vitronectin in TBS^+++/BSA as the diluent. This premixing of labeled ligand with test (or control) ligand, and subsequent transfer of 50 µL aliquots to the assay plate was carried out with a CETUS Propette robot; the final concentration of the labeled ligand was 1 nM and the highest concentration of test compound was 1.0 x 10^-4 M. The competition occurred for two hours after which all wells were washed with a plate washer as before. Affinity purified horseradish peroxidase labeled goat anti-biotin antibody was diluted 1:3000 in TBS^+++/BSA and 125 µL were added to each well. After 30 minutes, the plates were washed and incubated with […] substrate in 100 mM/L citrate buffer, pH 5.0. The plate was read with a microtiter plate reader at a wavelength of 450 nm and when the maximum-binding control wells reached an absorbance of about 1.0, the final A450 were recorded for analysis. The data were analyzed using a macro written for use with the EXCEL™ spreadsheet program. The mean, standard deviation, and %CV were determined for duplicate concentrations. The mean A450 values were normalized to the mean of four maximum-binding controls (no competitor added)(B-MAX). The normalized values were subjected to a four parameter curve fit algorithm, [Robard et al., Int. […]

[3] = purified receptor from human placenta, 1 nM biotinylated vitronectin, highest concentration tested 1.0 x 10^-4 M, read-out: AvB3 IC50

SMILES | IC50 [1, 3] | IC50 [2] | IC50 [1]
CC(Oc1ccc(NC(=O)c2cccc(NC(=N)N)c2)cc1)C(=O)O (centres unmarked) [Example 85, 2-[4-[[[3-[(aminoiminomethyl)amino]phenyl]. carbonyl]amino]phenoxy]propanoic acid, trifluoroacetate salt] | 827 nM | 12600 nM | 
COC(=O)C(C)Oc1ccc(NC(=O)c2cccc(NC(=N)N)c2)cc1 (centres unmarked) [Example 85C] | 39600 nM | 66000 nM | 
N=C(N)Nc1cccc(C(=O)Nc2ccc(OC(C(=O)O)c3ccccc3)cc2)c1 (stereo not drawn) [Example 86, α-[4-[[[3-[(aminoiminomethyl)amino]phenyl]carbonyl]amino]phenoxy]benzeneacetic acid, trifluoroacetate salt] | 307 nM | 3140 nM | 
CCOC(=O)COc1ccc(NC(=O)c2cccc(NC(=N)N)c2)cc1 [Example 89, ethyl [4-[[[3-[(aminoiminomethyl)amino]phenyl]carbonyl]amino]phenoxy]acetate, trifluoroacetate salt] | 2070 nM | 16000 nM | 
NC(N)=Nc1cccc(C(=O)Nc2ccc(CCC(=O)O)c(C(=O)O)c2)c1 [Example 101A, 4-[[[3-[(aminoiminomethyl)amino]phenyl]carbonyl]-amino]-2-carboxybenzenepropanoic acid, bis(trifluoroacetate) salt] | 9 nM | 57 nM | 
COC(=O)c1cc(NC(=O)c2cccc(NC(=N)N)c2)ccc1CCC(=O)O [Example 101B, 4-[[[3-[(aminoiminomethyl)amino]phenyl]carbonyl]-amino]-2-methoxycarbonyl)benzenepropanoic acid, bis(trifluoroacetate) salt] | 35 nM | 286 nM | 
O=C(O)CCc1ccc(NC(=O)c2cccc(NC3=NCCCN3)c2)cc1C(=O)O [Example 102, 2-carboxy-4-[[[3-[(1,4,5,6-tetrahydropyrimidin-2-yl)-amino]phenyl]carbonyl]amino]benzenepropanoic acid, trifluoroacetate salt] | 6 nM | 4710 nM | 
CC(C)OC(=O)NC(Cc1ccc(NC(=O)c2cccc(NC(N)=NC(N)=O)c2)cc1)C(=O)O (centres unmarked) [Example 105, 4-[[[3-[[amino[(aminocarbonyl)imino]methyl]-amino]phenyl]carbonyl]amino]-N-[(1-methylethoxy]carbonyl]phenylalanine, bis(trifluoroacetate) salt] | 2 nM | 267 nM | 
CC(C)CC(=O)NC(Cc1ccc(NC(=O)c2cccc(NC(=N)N)c2)cc1)C(=O)O (centres unmarked) [Example 106, 4-[[[3-[(aminoiminomethyl]amino]phenyl]-carbonyl]amino]-N-[(3-methyl-1-oxobutyl)-phenylalanine, bis(trifluoroacetate) salt] |  | 77 nM | 5 nM
CC(C)CC(=O)N[C@@H](Cc1ccc(NC(=O)c2cc(NC3=NCCCN3)cc(C(F)(F)F)c2)cc1)C(=O)O [Example 107, N-(3-methyl-1-oxobutyl)-4-[[[3-[(1,4,5,6-tetrahydro-pyrimidin-2-yl)amino]-5-(trifluoromethyl)phenyl]-carbonyl]amino]phenylalanine, trifluoroacetate salt] | 0.5 nM | 1570 nM | 
CC(C)CC(=O)NC(Cc1ccc(NC(=O)c2cc(NC(=N)N)cc(C(F)(F)F)c2)cc1)C(=O)O (centres unmarked) [Example 108, 4-[[[3-[(aminoiminomethyl)amino]-5-(trifluoromethyl)-phenyl]carbonyl]amino]-N-(3-methyl-1-oxobutyl) phenylalanine, trifluoroacetate salt] | 4 nM | 109 nM | 
O=C(Nc1ccc(C[C@H](NS(=O)(=O)c2ccccc2)C(=O)O)cc1)c1cccc(NC2=NCCCN2)c1 [Example 111, N-(phenylsulfonyl)-4-[[[3-[(1,4,5,6-tetrahydro-pyrimidin-2-yl)amino]phenyl]carbonyl]amino]-phenylalanine, trifluoroacetate salt] | 0.1 nM | 6 nM | 
O=C(Nc1ccc(CC(NS(=O)(=O)c2ccccc2)C(=O)O)cc1)c1cccc(NC2=NCCN2)c1 (centres unmarked) [Example 112, 4-[[[3-[(4,5-dihydro-1H-imidazol-2-yl)amino]phenyl]-carbonyl]amino-N-(phenylsulfonyl)phenylalanine, trifluoroacetate salt] | 0.3 nM | 13 nM | 
COc1cc(NC(=O)c2cccc(NC3=NCCCN3)c2)ccc1C[C@H](NC(=O)OC(C)C)C(=O)O [Example 114, 2-methoxy-N-[(1-methylethoxy)carbonyl]-4-[[[3-[(1,4,5,6-tetrahydropyrimidin-2-yl)amino]-phenyl]-carbonyl]amino]phenylalanine, trifluoroacetate salt] | 0.2 nM | 1000 nM | 
COc1cc(NC(=O)c2cccc(NC(=N)N)c2)ccc1CCC(=O)O [Example 115, 4-[[[3-(aminoiminomethyl)amino]phenyl]-carbonyl]amino]-2-methoxybenzenepropanoic acid, trifluoroacetate salt] | 24 nM | 173 nM | 
COc1cc(NC(=O)c2cccc(NC3=NCCCN3)c2)ccc1CCC(=O)O [Example 116, 2-methoxy-4-[[[3-[(1,4,5,6-tetrahydropyrimidin-2-yl)amino]phenyl]carbonyl]amino]benzenepropanoic acid, trifluoroacetate salt] | 6 nM | 3180 nM | 
